Experimental data reported in patent publication US9777001B2 (priority 2014, dated 2017).
pKi: −log10 of the molar value. Counter-ions that a name gives are not always drawn.

Key:
[1] = target: human Factor XIa (Homo sapiens, UniProt P03951); assay: biochemical; settings: purified human Factor XIa, substrate S-2366, HEPES buffer pH 7.4
[2] = target: human plasma kallikrein (Homo sapiens, UniProt P03952); assay: biochemical; settings: purified human plasma kallikrein, substrate S-2302, sodium phosphate buffer pH 7.5
Chain of human plasma kallikrein (P03952 391-638 limits assumed): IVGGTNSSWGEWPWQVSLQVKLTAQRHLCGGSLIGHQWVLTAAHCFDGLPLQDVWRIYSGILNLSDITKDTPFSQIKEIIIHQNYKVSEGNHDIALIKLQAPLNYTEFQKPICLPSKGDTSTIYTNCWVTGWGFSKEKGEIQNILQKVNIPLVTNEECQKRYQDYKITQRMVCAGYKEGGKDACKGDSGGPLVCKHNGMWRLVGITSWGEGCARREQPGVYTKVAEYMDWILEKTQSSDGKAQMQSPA
Chain of human plasma kallikrein (P03952 20-390 partner limits assumed): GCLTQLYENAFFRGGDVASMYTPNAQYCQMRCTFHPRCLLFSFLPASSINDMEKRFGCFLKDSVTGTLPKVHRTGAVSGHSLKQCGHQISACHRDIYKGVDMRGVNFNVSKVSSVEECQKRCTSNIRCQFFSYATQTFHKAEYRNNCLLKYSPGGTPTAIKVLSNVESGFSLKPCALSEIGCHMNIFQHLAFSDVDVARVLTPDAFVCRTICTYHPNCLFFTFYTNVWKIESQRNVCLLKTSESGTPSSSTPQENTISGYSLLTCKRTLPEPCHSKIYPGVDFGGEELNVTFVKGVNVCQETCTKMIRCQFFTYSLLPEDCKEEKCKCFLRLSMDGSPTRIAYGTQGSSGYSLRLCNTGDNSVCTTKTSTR

Chain of human Factor XIa (P03951 388-625 limits assumed): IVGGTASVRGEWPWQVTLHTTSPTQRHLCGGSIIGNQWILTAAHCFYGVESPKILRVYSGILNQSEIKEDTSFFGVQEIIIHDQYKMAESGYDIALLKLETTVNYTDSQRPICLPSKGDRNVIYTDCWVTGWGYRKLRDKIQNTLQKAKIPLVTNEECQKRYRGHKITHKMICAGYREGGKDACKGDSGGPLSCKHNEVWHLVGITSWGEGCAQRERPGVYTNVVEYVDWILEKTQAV
Chain of human Factor XIa (P03951 19-387 partner limits assumed): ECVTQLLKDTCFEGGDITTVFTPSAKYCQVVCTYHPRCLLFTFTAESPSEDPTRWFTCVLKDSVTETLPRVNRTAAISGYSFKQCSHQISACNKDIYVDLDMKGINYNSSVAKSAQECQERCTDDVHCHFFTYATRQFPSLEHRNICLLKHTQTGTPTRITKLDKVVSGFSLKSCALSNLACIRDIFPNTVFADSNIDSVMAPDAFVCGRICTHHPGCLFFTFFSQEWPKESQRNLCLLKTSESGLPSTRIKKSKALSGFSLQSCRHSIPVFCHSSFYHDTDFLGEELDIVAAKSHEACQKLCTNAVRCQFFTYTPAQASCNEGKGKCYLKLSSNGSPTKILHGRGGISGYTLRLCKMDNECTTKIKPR

pKi [1] | pKi [2] | Structure (SMILES)
6.51 | – | COc1ccc(Cl)cc1-c1cc(=O)n([C@H]2CCC[C@@H](C)C(=O)Nc3ccc(F)cc3-c3ccnc2c3)cn1 [Example 150, (10R,14S)-14[4-(5-chloro-2-methoxyphenyl)-6-oxo-1,6-dihydropyrimidin-1-yl]-4-fluoro-10-methyl-8,16-diazatricyclo[13.3.1.0^2,7]nonadeca-1(19),2(7),3,5,15,17-hexaen-9-one trifluoroacetate]
8.15 | – | C[C@@H]1CCC[C@H](n2cnc(-c3cc(Cl)ccc3-n3cc(Cl)nn3)cc2=O)c2cc(ccn2)-c2ccc(C(F)(F)C(N)=O)cc2NC1=O [Example 90, 2-[(10R,14S)-14-{4-[5-chloro-2-(4-chloro-1H-1,2,3-triazol-1-yl)phenyl]-6-oxo-1,6-dihydropyrimidin-1-yl}-10-methyl-9-oxo-8,16-diazatricyclo[13.3.1.0^2,7]nonadeca-1(19),2(7),3,5,15,17-hexaen-5-yl]-2,2-difluoroacetamide trifluoroacetate]
7.41 | – | COC(=O)c1ccc(Cl)cc1-c1cc(=O)n([C@H]2CCC[C@@H](C)C(=O)Nc3ccc(F)cc3-c3ccnc2c3)cn1 [Example 68, methyl 4-chloro-2-{1-[(10R,14S)-4-fluoro-10-methyl-9-oxo-8,16-diazatricyclo[13.3.1.0^2,7]nonadeca-1(19),2(7),3,5,15,17-hexaen-14-yl]-6-oxo-1,6-dihydropyrimidin-4-yl}benzoate]
9.20 | 7.18 | Cc1ccc(-n2cc(C(F)(F)F)nn2)c(-c2cc(=O)n([C@H]3CCC[C@@H](C)C(=O)Nc4ccccc4-c4ccnc3c4)cn2)c1 [Example 81, (10R,14S)-10-methyl-14-(4-{5-methyl-2[4-(trifluoromethyl)-1H-1,2,3-triazol-1-yl]phenyl}-6-oxo-1,6-dihydropyrimidin-1-yl)-8,16-diazatricyclo [13.3.1.0^2,7]nonadeca-1(19),2(7),3,5,15,17-hexaen-9-one]
8.57 | – | C[C@@H]1CCC[C@H](n2cnc(-c3cc(Cl)ccc3-c3csnn3)cc2=O)c2cc(ccn2)-c2cc(F)ccc2NC1=O [Example 117, (10R,14S)-14-{4-[5-chloro-2-(1,2,3-thiadiazol-4-yl)phenyl]-6-oxo-1,6-dihydropyrimidin-1-yl}-4-fluoro-10-methyl-8,16-diazatricyclo[13.3.1.0^2,7]nonadeca-1(19),2(7),3,5,15,17-hexaen-9-one]
7.77 | – | C[C@@H]1CCC[C@H](n2cnc(-c3c(C(F)(F)F)ccc(Cl)c3F)cc2=O)c2cc(ccn2)-c2cc(F)ccc2NC1=O [Example 143, (10R,14S)-14-{4-[3-chloro-2-fluoro-6-(trifluoromethyl)phenyl]-6-oxo-1,6-dihydropyrimidin-1-yl}-4-fluoro-10-methyl-8,16-diazatricyclo[13.3.1.0^2,7]nonadeca-1(19),2(7),3,5,15,17-hexaen-9-one trifluoroacetate]
9.80 | – | C[C@@H]1CCC[C@H](n2cnc(-c3c(-n4cc(C(F)F)nn4)ccc(Cl)c3F)cc2=O)c2cc(ccn2)-c2cc(F)ccc2NC1=O [Example 134, (10R,14S)-14-(4-{3-chloro-6-[4-(difluoromethyl)-1H-1,2,3-triazol-1-yl]-2-fluorophenyl}-6-oxo-1,6-dihydropyrimidin-1-yl)-4-fluoro-10-methyl-8,16-diazatricyclo [13.3.1.0^2,7]nonadeca-1(19),2(7),3,5,15,17-hexaen-9-one trifluoroacetate]
9.38 | – | Cc1ccc2c(c1)NC(=O)[C@H](C)CCC[C@H](n1cnc(-c3cc(Cl)ccc3-n3cc(C(F)(F)F)nn3)cc1=O)c1cc-2ccn1 [Example 78, (10R,14S)-14-(4-{5-chloro-2-[4-(trifluoromethyl)-1H-1,2,3-triazol-1-yl]phenyl}-6-oxo-1,6-dihydropyrimidin-1-yl)-5,10-dimethyl-8,16-diazatricyclo [13.3.1.0^2,7]nonadeca-1(19),2(7),3,5,15,17-hexaen-9-one]
9.59 | – | C[C@@H]1CCC[C@H](n2cnc(-c3cc(Cl)ccc3-n3cc(C#N)nn3)cc2=O)c2cc(ccn2)-c2ccc(C(F)F)cc2NC1=O [Example 70, 1-(4-chloro-2-{1-[(10R,14S)-5-(difluoromethyl)-10-methyl-9-oxo-8,16-diazatricyclo[13.3.1.0^2,7]nonadeca-1(19),2(7),3,5,15,17-hexaen-14-yl]-6-oxo-1,6-dihydropyrimidin-4-yl}phenyl)-1H-1,2,3-triazole-4-carbonitrile]
6.54 | – | C[C@@H]1CCC[C@H](n2cnc(-c3cc(Cl)ccc3F)cc2=O)c2cc(ccn2)-c2cc(F)ccc2NC1=O [Example 50, (10R,14S)-14-[4-(5-chloro-2-fluorophenyl)-6-oxo-1,6-dihydropyrimidin-1-yl]-4-fluoro-10-methyl-8,16-diazatricyclo[13.3.1.0^2,7]nonadeca-1(19),2(7),3,5,15,17-hexaen-9-one trifluoroacetate]
7.96 | – | C[C@@H]1CCC[C@H](n2cnc(-c3cc(Cl)ccc3-n3cc(Cl)nn3)cc2=O)c2cc(ccn2)-c2cc(S(C)(=O)=O)ccc2NC1=O [Example 67, (10R,14S)-14-{4-[5-chloro-2-(4-chloro-1H-1,2,3-triazol-1-yl)phenyl]-6-oxo-1,6-dihydropyrimidin-1-yl}-4-methanesulfonyl-10-methyl-8,16-diazatricyclo [13.3.1.0^2,7]nonadeca-1(19),2(7),3,5,15,17-hexaen-9-one]
10.00 | – | C[C@@H]1CCC[C@H](n2cnc(-c3c(-n4cnnn4)ccc(Cl)c3F)cc2=O)c2cc(ccn2)-c2cc(F)ccc2NC1=O [Example 35, (10R,14S)-14-{4-[3-chloro-2-fluoro-6-(1H-1,2,3,4-tetrazol-1-yl)phenyl]-6-oxo-1,6-dihydropyrimidin-1-yl}-4-fluoro-10-methyl-8,16-diazatricyclo[13.3.1.0^2,7]nonadeca-1(19),2(7),3,5,15,17-hexaen-9-one trifluoroacetate]
10.00 | – | C[C@@H]1CCC[C@H](n2cnc(-c3cc(Cl)ccc3-n3cc(Cl)nn3)cc2=O)c2cc(ccn2)-c2ccc(O)cc2NC1=O [Example 85, (10R,14S)-14-{4-[5-chloro-2-(4-chloro-1H-1,2,3-triazol-1-yl)phenyl]-6-oxo-1,6-dihydropyrimidin-1-yl}-5-hydroxy-10-methyl-8,16-diazatricyclo[13.3.1.0^2,7]nonadeca-1(19),2(7),3,5,15,17-hexaen-9-one trifluoroacetate]
7.00 | – | C[C@@H]1CCC[C@H](n2cnc(-c3cc(Cl)cc4cnn(C)c34)cc2=O)c2cc(ccn2)-c2ccccc2NC1=O [Example 119, (10R,14S)-14-[4-(5-chloro-1-methyl-1H-indazol-7-yl)-6-oxo-1,6-dihydropyrimidin-1-yl]-10-methyl-8,16-diazatricyclo[13.3.1.0^2,7]nonadeca-1(19),2(7),3,5,15,17-hexaen-9-one]
10.00 | – | C[C@@H]1CCC[C@H](n2cnc(-c3cc(Cl)ccc3-n3cc(Cl)nn3)cc2=O)c2cc(ccn2)-c2cc(F)ccc2NC1=O [Example 140, (10R,14S)-14-{4-[5-chloro-2-(4-chloro-1H-1,2,3-triazol-1-yl)phenyl]-6-oxo-1,6-dihydropyrimidin-1-yl}-4-fluoro-10-methyl-8,16-diazatricyclo[13.3.1.0^2,7]nonadeca-1(19),2(7),3,5,15,17-hexaen-9-one trifluoroacetate]
9.55 | – | C[C@@H]1CCC[C@H](n2cnc(-c3cc(Cl)ccc3-n3cc(Cl)nn3)cc2=O)c2cc(ccn2)-c2ccccc2NC1=O [Example 57, (10R,14S)-14-{4-[5-chloro-2-(4-chloro-1H-1,2,3-triazol-1-yl)phenyl]-6-oxo-1,6-dihydropyrimidin-1-yl}-10-methyl-8,16-diazatricyclo[13.3.1.0^2,7]nonadeca-1(19),2,4,6,15,17-hexaen-9-one]
9.39 | – | C[C@@H]1CCC[C@H](n2cnc(-c3cc(Cl)ccc3-n3cc(C(F)(F)F)nn3)cc2=O)c2cc(ccn2)-c2c(Cl)cccc2NC1=O [Example 105, (10R,14S)-3-chloro-14-(4-{5-chloro-2-[4-(trifluoromethyl)-1H-1,2,3triazol-1-yl]phenyl}-6-oxo-1,6-dihydropyrimidin-1-yl)-10-methyl-8,16-diazatricyclo[13.3.1.0^2,7]nonadeca-1(19),2(7),3,5,15,17-hexaen-9-one]
– | 6.47 | COC(=O)Nc1ccc2c(c1)CCCCCC[C@H](n1cnc(-c3cc(Cl)ccc3-n3cnnn3)cc1=O)c1nc-2c[nH]1 [Example 132, methyl N-[(14S)-14-{4-[5-chloro-2-(1H-1,2,3,4-tetrazol-1-yl)phenyl]-6-oxo-1,6-dihydropyrimidin-1-yl}-16,18-diazatricyclo[13.2.1.0^2,7]octadeca-1(17),2,4,6,15(18)-pentaen-5-yl]carbamate trifluoroacetate]
10.00 | – | C[C@@H]1CCC[C@H](n2cnc(-c3cc(Cl)ccc3-n3cc(C#N)nn3)cc2=O)c2cc(ccn2)-c2cc(F)ccc2NC1=O [Example 148, 1-(4-chloro-2-{1-[(10R,14S)-4-fluoro-10-methyl-9-oxo-8,16-diazatricyclo [13.3.1.0^2,7]nonadeca-1(19),2(7),3,5,15,17-hexaen-14-yl]-6-oxo-1,6-dihydropyrimidin-4-yl}phenyl)-1H-1,2,3-triazole-4-carbonitrile trifluoroacetate]
8.52 | – | C[C@@H]1CCC[C@H](n2cnc(-c3cc(Cl)ccc3-n3cc(C(F)(F)F)nn3)cc2=O)c2cc(ccn2)-c2ccc(C#N)cc2NC1=O [Example 43, (10R,14S)-14-(4-{5-chloro-2-[4-(trifluoromethyl)-1H-1,2,3-triazol-1-yl]phenyl}-6-oxo-1,6-dihydropyrimidin-1-yl)-10-methyl-9-oxo-8,16-diazatricyclo [13.3.1.0^2,7]nonadeca-1(19),2(7),3,5,15,17-hexaene-5-carbonitrile trifluoroacetate]
– | 7.39 | C[C@@H]1CCC[C@H](n2cnc(-c3c(-n4ccnn4)ccc(Cl)c3F)cc2=O)c2cc(ccn2)-c2c(ccc(F)c2F)NC1=O [Example 54, (10R,14S)-14-{4-[3-chloro-2-fluoro-6-(1H-1,2,3-triazol-1-yl)phenyl]-6-oxo-1,6-dihydropyrimidin-1-yl}-3,4-difluoro-10-methyl-8,16-diazatricyclo[13.3.1.0^2,7]nonadeca-1(19),2(7),3,5,15,17-hexaen-9-one trifluoroacetate]
